The values that follow come from a melting point compilation (Tetko et al.; mined from patent text by program, amines drawn as free bases though some values may be those of a salt).

A value given as a limit tells only on which side of the number the result lay.

The melting point is the temperature of the solid-liquid transition. `NC(=O)c1nn(-c2ccc(S(N)(=O)=O)cc2)c2c1CSc1ccccc1-2` had a melting point of 211 to 213 °C.

`CC(C)(C)C(=NO)C(C)(C)CCCCCCC(C)(C)C(=NO)C(C)(C)C` gave a melting point of 203 to 209 °C.

Regarding `CNc1c(NCCCCc2ncc(Br)cc2C)c(=O)c1=O`, the melting point was in the range of 190 to 191 °C.

`O=C(NOCC(O)CN1CCCCC1)Nc1ccccc1` (configuration not stated) showed a melting point of 101 to 103 °C.

`CCNC1CCN(c2cccc(-c3cnc4[nH]cc(C(=O)C(C)(C)C)c4n3)c2)C1` (configuration not stated) came in with a melting point of 200 to 202 °C.

`O=C(O)[C@@H]1C[C@H]1c1ccc([N+](=O)[O-])cc1` (relative stereo) registered a melting point of 195 to 196 °C.

On to `CCN(CC)CCNC(=O)c1cc(Cl)c2cc(I)ccc2n1`, for which the melting point was 64 to 66 °C.

In the case of `Cn1c(/C=C/C=O)c(-c2ccccc2)c2ccccc2c1=O`, the melting point was determined as 228 °C.

For the molecule `c1ccc(Nc2ncnc3[nH]ccc23)cc1`, the melting point is 234 to 236 °C.

In turn, `CC(O)=C1C(=O)CC(c2ccccc2C)CC1=O` (configuration not stated) gave a melting point of 78 to 81 °C.

The molecule `O=Cc1ccc2cc(OCc3ccccc3)ccc2c1` showed a melting point of 107 to 108 °C.

`Cc1c(C(=O)C(N)=O)c2c(OCC(=O)O)cc3c(c2n1Cc1ccccc1)CCCC3`: the melting point is > 300 °C.

Molecule `Cc1sc2c(Br)c3ccccc3c(-c3cc(Br)c(O)c([N+](=O)[O-])c3)c2c1C` had a melting point of 129 to 130 °C.

`C#CC(C)N(C)C(=O)Nc1ccc(Oc2cccc(Cl)n2)cc1` (configuration not stated): the melting point lay within 140 to 142 °C.

For `COC(=O)C1C=CCN2C(=O)C(CCO)(Cc3ccccc3)C(=O)N12` (configuration not stated), the melting point was 148 to 149 °C.

In turn, `COc1cc(OC)c2c(=O)c(OC)c(-c3ccc(O)c(OC)c3)oc2c1` gave a melting point of 221 to 223 °C.

Molecule `O=c1[nH]n(-c2ccnc(N[C@H]3CC[C@H](O)CC3)n2)c2ccccc12` returned a melting point of 264 °C.

With `CCCCOC(=O)c1ccccc1OC(=O)N(C)SN(C)C(=O)ON=C(C)SC`, the melting point lay within 68 to 74 °C.

Take `CNC(=O)NNC1=NS(=O)(=O)c2ccccc21`: the melting point stood at 183 °C.

In turn, `N#CCNC(COCc1cc(C(F)(F)F)cc(C(F)(F)F)c1)C(c1ccccc1)c1ccccc1` (configuration not stated) displayed a melting point of 78 to 80 °C.

In turn, `COc1ccc(-c2ccc(O)cc2C=O)cc1Cl` came in with a melting point of 168 to 170 °C.

As for `CNC(=O)ON=C1N=C(c2ccccc2)C(C)(C)S1`, the melting point lay in the range of 135 to 137 °C.

`CCCCCCCCCCCCCCCCOC[C@@H]1OCC[C@H]1OP(=O)([O-])OCC[N+](C)(C)C` (relative stereo) gave a melting point of 213 to 223 °C.

Turning to `Cc1noc(NS(=O)(=O)c2ccccc2-c2ccc(-c3ncco3)cc2Cn2ccc(-c3ccccc3)n2)c1C`, the melting point fell in the range of 164 to 168 °C.

Molecule `O=c1[nH]c(=O)n(C2OC(CO)C(O)C2F)cc1I` (configuration not stated) displayed a melting point of 216 to 217 °C.

Turning to `O=[N+]([O-])c1ccc(C=C(Cl)Cl)o1`, the melting point lay within 74 to 75 °C.

Regarding `Cc1cc(C)c(C=O)c(-c2ccc(Cl)c(Cl)c2)c1`, the melting point was in the range of 80 to 81 °C.

Molecule `CSCC(=O)Nc1cccc(C(F)(F)F)c1` yielded a melting point of 75 to 77 °C.

With `COC(=O)c1ccc(Cc2cn(C)c3ccc(NC(=O)NC4CCCC4)cc23)c(OC)c1`, the melting point fell in the range of 210 to 212 °C.

For `COc1ccc(-c2nn(CC=Cc3ccc(F)cc3F)c(=O)cc2-c2ccncc2)cc1`, the melting point was in the range of 55.4 to 56.9 °C.

Regarding `CN(C)CCc1ccc(N)c2[nH]ncc12`, the melting point was 125 °C.

In turn, `Cc1cccc(-c2nc(CI)c(C)o2)c1` came in with a melting point of 32 °C.

The molecule `CCC(C)c1cc2c(cc1O)CC[C@@H]1[C@@H]2CC[C@]2(C)C(=O)CC[C@@H]12` (some centres not stated) registered a melting point of 186 to 187 °C.

Take `CCC(CC)N(O)C(=O)Nc1ccc(Cc2ccc(NC(=O)N(O)C(CC)CC)c(Cl)c2)cc1Cl`: the melting point fell in the range of 172 to 173 °C.

On to `CN(C(=O)Nc1c(F)cc(F)cc1CCc1cc(C(C)(C)C)c(O)c(C(C)(C)C)c1)C1CCN(Cc2ccccc2)CC1`, for which the melting point lay within 187 to 191 °C.

`OCCCCCc1ccc(OCc2coc(/C=C/c3ccccc3)n2)cc1` showed a melting point of 93 to 94 °C.

As for `COc1ccc(N2CCOCC2)c2sc(NC(=O)N(C)C3CCOCC3)nc12`, the melting point lay in the range of 240 to 242 °C.

`COc1cc(Nc2nccc(-c3ccc(N(C)CCN(C)C)nc3)n2)cc(OC)c1OC` yielded a melting point of 97 to 98 °C.

`CCN(CC)C(=O)CCc1ccc(N)c([N+](=O)[O-])c1` returned a melting point of 98 to 99 °C.

Turning to `C[C@H](CSC(=O)C(C)(C)C)C(=O)N(CC(=O)O)C1CCCC1`, the melting point was 155 to 156 °C.

On to `CC1(C)OC(=O)Nc2c(Br)cc(-c3ccc(F)c(C#N)c3)cc21`, for which the melting point was 235 to 236 °C.

Regarding `O=C1CCC(N2Cc3cc(CNC(=S)Nc4ccc(SC(F)(F)F)cc4)ccc3C2=O)C(=O)N1` (configuration not stated), the melting point was in the range of 229 to 231 °C.

On to `O=c1[nH]c2ccccc2n(Cc2nnn[nH]2)c1=O`, for which the melting point is 320 °C.

`CC(C)CC(CS)C(=O)N[C@H]1Cc2cn(c3ccccc23)CCCCCCNC1=O` (some centres not stated) displayed a melting point of 224 °C.

For the molecule `CCc1cccc2c(O)cnnc12`, the melting point lay in the range of 160 to 161 °C.

As for `Nc1sc2c(c1C(=O)c1ccco1)CCC2`, the melting point was 149 to 153 °C.

`CCOc1c(CN2CCCCC2)c2c(c3c1OC(C)(C)C3)C(c1cccc(N(S(C)(=O)=O)S(C)(=O)=O)c1)=NC(C)(C)C2` gave a melting point of 118 to 119 °C.

`N#CC1(N)CCc2ccc3ccccc3c2C1` (configuration not stated) registered a melting point of 75 to 78 °C.

Molecule `CCO[C@@H]1[C@@H](OC)[C@H](C)O[C@@H](OC(=O)N(C(C)=O)c2ccc(-c3ncn(-c4ccc(OC(F)(F)C(F)(F)F)cc4)n3)cc2)[C@@H]1OC` gave a melting point of 70 to 72 °C.

Take `COc1ccccc1CNc1ccc2cc(Nc3cccc(C)n3)ccc2n1`: the melting point came to 134 °C.

As to `OC(COCc1ccc(Br)cc1)Cn1ccnc1` (configuration not stated), the melting point was in the range of 98 to 100 °C.

Regarding `O=C(O)Cc1c(C(=O)O)c2cc(Oc3ccc(Cl)cc3)ccc2n1-c1ccc(OC(F)(F)F)cc1`, the melting point lay in the range of 198 to 202 °C.

Molecule `COc1ccc2c(c1)C(=O)C(=O)C1=C2OC2(CCN(Cc3ccc(F)cc3)CC2)CS1` had a melting point of 219 to 221 °C.

Consider `CCCCc1ncc(/C=C(\Cc2cccs2)C(=O)O)n1Cc1ccc(C(=O)O)cn1`, for which the melting point lay in the range of 212 to 213 °C.

`CC(C)(N)CNC(=O)Nc1ccccc1` registered a melting point of 130 to 131 °C.

Regarding `CC(C)(C)c1ccc(C(=O)NN=Cc2c(O)ccc3ccccc23)cc1`, the melting point was 259 to 261 °C.

On to `CC1(C)OC(=S)Nc2c(Br)cc(-c3cc(F)cc(C#N)c3)cc21`, for which the melting point is 219 to 220 °C.

Take `COc1cn(-c2cccc(C(F)(F)F)c2)nc(-c2ccnn2-c2ccccc2)c1=O`: the melting point lay within 139 to 141 °C.

In turn, `COC(=O)CCC(C)C1CCC2C3CC=C4CC(OC(C)=O)CCC4(C)C3CCC12C` (configuration not stated) returned a melting point of 152 °C.

`COc1ccc(S(=O)(=O)N2C(=O)[C@@](c3ccccc3OC)(N3C[C@H](OC(C)=O)C[C@H]3C(=O)N(C)C)c3cc(Cl)ccc32)c(OC)c1` had a melting point of 194 to 195 °C.

`CC(Br)c1ccc2c(-c3ccccc3)onc2c1` (configuration not stated): the melting point fell in the range of 99 to 102 °C.

Regarding `NC(Cc1ccccc1)C(=O)NC1N=C(c2ccccc2)c2ccccc2NC1=O` (configuration not stated), the melting point lay within 208 to 210 °C.

`CCCCNC(=O)Oc1ccc(Oc2ccccc2)cc1Br` had a melting point of 57 to 60 °C.

Molecule `C#C[C@]1(C)CCc2c(C)c(OCc3ccccc3)c(C)c(C)c2O1` had a melting point of 88 to 90 °C.

Molecule `C=CC(=O)NC(=O)N1CC1C#N` (configuration not stated) registered a melting point of 158 to 160 °C.

Turning to `CC(C)(C)C1=NN(c2ccc(C(=O)O)cc2)C(c2cccc([N+](=O)[O-])c2)C1` (configuration not stated), the melting point turned out to be 235 °C.

In turn, `CCCCC1(c2ccc(-c3ccccc3)cc2)CC(O)=C(SCCc2ccccc2)C(=O)O1` (configuration not stated) came in with a melting point of 100 to 104 °C.

In turn, `O=C1CCC(N2Cc3c(OCc4ccc5occc5c4)cccc3C2=O)C(=O)N1` (configuration not stated) showed a melting point of 168 to 170 °C.

Molecule `COc1ccc(-c2ccc(C#N)cn2)cc1-c1nc2cc(C#N)ccc2[nH]1` had a melting point of 316 to 319 °C.

For `CCN(C(=O)OC(C)(C)C)n1c(C)nc(N2CCc3ccccc3CC2)c(C#N)c1=O`, the melting point is 86 to 88 °C.

For the molecule `Cc1ccc2c(c1)CC(=O)c1cc(CC(=O)O)ccc1O2`, the melting point was 154 to 155 °C.

The molecule `c1ccc(Nc2nc(-c3cccnc3)nc3ccccc23)cc1` had a melting point of 173 to 178 °C.

Turning to `COc1ccc2[nH]c(S(=O)Cc3cc(N(C)C)ncn3)nc2c1` (configuration not stated), the melting point lay in the range of 104 to 106 °C.

`CC(=O)CC(=O)N[C@H](CF)[C@H](O)c1ccc(S(C)(=O)=O)cc1` registered a melting point of 139 to 141 °C.

In the case of `CCN1C(=O)[C@@H](N)COc2ccccc21`, the melting point was found to be 97 °C.

Take `O=C(NCCO)c1cncc(-c2cccc3nn(Cc4cccc(C(F)(F)F)c4)cc23)c1`: the melting point is 185 to 186 °C.

Molecule `CCOc1cc2c(cc1O)C(C(Cl)(Cl)Cl)OC2=O` (configuration not stated) yielded a melting point of 143 to 144 °C.

As to `N#CC1=C(c2ccc(Cl)s2)Nc2n[nH]cc2C1c1cccc2nonc12` (configuration not stated), the melting point stood at 210 °C.

In turn, `O=C(CCl)Cc1ccc(Cl)cc1` displayed a melting point of 40.5 to 45.5 °C.

On to `CC12CCC3c4ccc(C(=O)O)cc4CCC3C1CCC2C(=O)CCc1ccc(C(=O)O)cc1` (configuration not stated), for which the melting point was 285 to 290 °C.

The molecule `CCCN(CCC)C(=O)C(CCC(N)=O)NC(=O)C=Cc1ccco1` (configuration not stated) displayed a melting point of 152 to 153 °C.

`Cc1cc(C(=O)N2Cc3ccc(C(=O)N(C)C[C@@H]4OC(=O)O[C@H]4[C@H](O)[C@H]4COC(=O)O4)n3Cc3ccccc32)ccc1C1=CCCCC1` registered a melting point of 162 to 168 °C.

As to `CC(C)(C)c1cc(C(C)(C)C)c(OP2OCCN2C(C)(C)C)c(C(C)(C)C)c1` (configuration not stated), the melting point lay within 73 to 74 °C.

Turning to `CCN(CC)C(=O)COc1nc2cc(OC)cc(OC)c2cc1-c1ccc(OC)cc1`, the melting point fell in the range of 146 to 147 °C.

Consider `CC1(C)OC(=S)N(c2cc(F)cc(C(F)(F)F)c2)c2ccccc21`, for which the melting point is 204 to 206 °C.

`COc1ccc(-n2nc(C(=O)CCCO)cc2-c2ccc(S(C)(=O)=O)cc2)cc1` registered a melting point of 125 to 127 °C.

The molecule `CO/C=C(/C(=O)OC)c1ccccc1Oc1cccc(O)c1` registered a melting point of 117 to 118 °C.
